According to patent US11331333B2, “Treatment of aberrant fibroblast proliferation” (Georg August Universitaet Goettingen Stiftung Oeffentlichen …, priority 2019, dated 2022):

Key:
EYA1A = target: T1, EYA1A (Homo sapiens, UniProt Q99502); assay: Screen of NCI Mechanistic Set II for EYA1A phosphatase activity with pNPP substrate; format: biochemical; conditions: transgenic fibroblasts, compared to control cultures
T1 construct: expressed in transfected cells; host or cells: transgenic fibroblasts
T1 sequence (Q99502 1-559 isoform Q99502-2): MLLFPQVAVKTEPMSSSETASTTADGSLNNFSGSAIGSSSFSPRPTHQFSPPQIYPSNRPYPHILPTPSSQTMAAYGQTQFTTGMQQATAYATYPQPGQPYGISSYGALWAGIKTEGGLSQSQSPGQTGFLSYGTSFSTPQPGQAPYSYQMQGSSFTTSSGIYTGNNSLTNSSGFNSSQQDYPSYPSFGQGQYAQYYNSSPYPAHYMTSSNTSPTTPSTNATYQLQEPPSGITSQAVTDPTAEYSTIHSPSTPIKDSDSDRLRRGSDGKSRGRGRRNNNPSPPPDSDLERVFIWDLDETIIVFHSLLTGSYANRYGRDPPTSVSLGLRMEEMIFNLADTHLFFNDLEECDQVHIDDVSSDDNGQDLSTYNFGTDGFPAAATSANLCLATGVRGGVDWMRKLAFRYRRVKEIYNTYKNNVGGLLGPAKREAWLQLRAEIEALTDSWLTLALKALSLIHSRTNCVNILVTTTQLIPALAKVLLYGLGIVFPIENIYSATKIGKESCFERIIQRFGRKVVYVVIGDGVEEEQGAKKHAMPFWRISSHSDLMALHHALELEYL
Method: FIG. 14 illustrates results of a screen for additional compounds for selective modulation of EYA1A phosphatase activity. The EYA1A phosphatase activity was estimated using p-nitrophenyl phosphate (pNPP) substrate. Briefly, phosphatase activity was determined in transgenic fibroblasts and pNP production was determined in comparison to control cultures. Among 736 compounds contained in the NCI mechanistic set (NCI Mechanistic Set II), 228 inhibitors of EYA1A phosphatase activity were identified.
With regard to modulators of the phosphotyrosine phosphatase activity of EYA1, the inventors screened a small molecule library, namely the NCI “Mechanistic Set II library”, obtained from the open chemical repository of the Developmental Therapeutics Program (DTP) of the National Cancer Institute, illustrated by FIG. 14.
p-Nitrophenyl Phosphate (PNPP) is a non-proteinaceous, non-specific substrate used in the art to assay protein, alkaline and acid phosphatases. The PNPP phosphatase activity is measured using a continuous or single-point spectrophotometric assay based on the ability of phosphatases to catalyze the hydrolysis of PNPP to p-nitrophenol, a chromogenic product with absorbance at 405 nm. Any available protocol can be followed to determine phosphatase activity using pNPP.

[1] = tested on: EYA1A^tg mice challenged with UUO; assay: Unilateral ureteral obstruction (UUO) kidney fibrosis in EYA1A^tg mice; format: in vivo, mouse
Method: From 3 days before surgery, C57BL/6 (referred as wildtype) or transgenic mice overexpressing human splice variants EYA1A (rtTACMV;hEYA1A-pTreTight, referred to as EYA1A^tg) and EYA1C (rtTACMV;hEYA1C-pTreTight, referred to as EYA1C^tg) were treated with either vehicle buffer (glucose 5%) or DOX (2 mg/ml, Sigma, St. Louis, USA) within drinking water ad libidum and renewal every 2 days.
Mice were anesthetized with isoflurane inhalation (2-3%), analgesia was performed by subcutaneous injection of 0.1 mg/kg body weight per day Buprenorphine. The ureter was separated from the surrounding tissues and two ligatures were placed about 5 mm apart in upper two-thirds of the left ureter to obtain reliable obstruction. Mice were sacrificed 3, 7 or 10 days after ureteral obstruction for further analyses.
Mice were injected intraperitoneally with Na3VO4 (8 mg/kg i.p. once per day, Sigma, St. Louis, USA) or caffeine (12.5 mg/kg i.p. once per day, Sigma, St. Louis, USA) starting one day prior of surgery, control mice received equivalent volume of PBS or DMSO.
Mice were injected intraperitoneally with SCR7 (20 mg/kg i.p. every alternate day, Sigma, St. Louis, USA) starting one day prior of surgery, control mice received equivalent volume of DMSO.
The inventors obtained 25 nucleotide antisense morpholino sequences (Gene Tools, Philomath, USA). The in vivo morpholinos contain a covalently linked octaguanidine dendrimer as a delivery moiety to facilitate entry into cells in vivo. Mice were injected intraperitoneally with 12.5 mg/kg body weight in vivo morpholinos in saline at a final volume of 100 μL every other day starting two days prior of surgery. A control in vivo
Lentiviral pLenti-Sce1 was produced in 293T virus packaging cells after transfection using morpholino that targets a human β-globin intron mutation was used as standard control. In vivo morpholino sequences are those of SEQ ID NOs: 9 (EYA1A-VMO), 10 (53Bp1-VMO) and 16 (control).
Formalin-fixed, paraffin-embedded kidneys and hearts from mice, and HOPE-fixed, paraffin-embedded human specimens were sectioned at 3 μm, Masson's Trichrome Stain (MTS) was performed at the University Medicine Göttingen. For morphometric analysis of interstitial fibrosis in mice and human biopsies, we assessed the fibrotic area using cellSens (Olympus, Tokyo, Japan) software. Ten visual fields were selected randomly for each MTS stained section at 200× magnification and the relative interstitial fibrotic area was evaluated by using a 10 mm^2 graticule.
Formalin-fixed, paraffin-embedded kidney sections from mice as well as from HOPE-fixed, paraffin-embedded human specimens were deparaffinized in xylene and rehydrated in ethanol containing distilled water. For immunofluorescent staining, EYA1 isoform antisera or primary antibodies against αSMA (A5228, Sigma, St. Louis, USA), Collagen-1 (ab34710, Abcam Biochemicals, Cambridge, UK), γH2A.X^pS139 (ab2893, Abcam Biochemicals, Cambridge, UK), γH2A.X^pS139 (05-636, Merck Millipore, Billerica, UK), γH2A.X^pY142 (ab94602, Abcam Biochemicals, Cambridge, UK), p-Chk1^pS317 (12302P, Cell Signaling, Danvers, USA), p-Chk2^pT68 (2197S, Cell Signaling, Danvers, USA), Rpa1 (2267S, Cell Signaling, Danvers, USA), Rad51 (sc-8349, Santa Cruz Biotechnology, Dallas, USA), 53Bp1 (sc-22760, Santa Cruz Biotechnology, Dallas, USA), Xrcc4 (sc-8285, Santa Cruz Biotechnology, Dallas, USA) and GFP (MA5-15256, Thermo Fisher Scientific, Waltham, USA) were used, secondary antibodies were labeled with Alexa Fluor 488, 594 or 647 (Life Technologies, Carlsbad, USA). Renal basement membranes were stained with antibodies against Collagen-4 (1340-30, SouthernBiotech, Birmingham, USA). Nuclear staining was performed using 4′,6-diamidino-2-phenylindole (DAPI, Vector Laboratories, Burlingame, USA). Quantifications were performed per high power field at 400× magnification, representative confocal pictures using an LSM 780 confocal laser scanning microscope (Zeiss, Oberkochen, Germany) are shown.

[2] = in vivo morpholino 12.5 mg/kg i.p. every other day, EYA1A^tg mice, UUO, 10 days
[3] = SCR7 20 mg/kg i.p. every alternate day, EYA1A overexpressing mice, 10 days after ureteral obstruction

| Compound | EYA1A phosphatase activity (EYA1A) | other results |
| --- | --- | --- |
| EYA1A-VMO: in vivo morpholino, SEQ ID NO: 9, with covalently linked octaguanidine dendrimer, specifically inhibiting EYA1A translation (CTGCAACTTGAGGAAACAGCAACAT; all phosphorodiamidate morpholino (PMO); octaguanidine dendrimer covalently linked, position not given here, further chemistry not fully specified) |  | pro-fibrotic effects ([1]; in vivo morpholino 12.5 mg/kg i.p. every other day, EYA1A overexpressing mice, 10 days after ureteral obstruction): reversed pro-fibrotic effects |
| 53Bp1-VMO: in vivo morpholino, SEQ ID NO: 10, with covalently linked octaguanidine dendrimer, blocking 53Bp1 translation (TCCATCTGCTCCCCTGGCATCC; all phosphorodiamidate morpholino (PMO); octaguanidine dendrimer covalently linked, position not given here, further chemistry not fully specified) |  | presence of Rpa1 (indicative of HR) ([1]; in vivo morpholino 12.5 mg/kg i.p. every other day, EYA1A-overexpressing mice, UUO): increased presence of Rpa1; 53Bp1 within chronically injured kidneys ([1]; in vivo morpholino 12.5 mg/kg i.p. every other day, EYA1A^tg mice, UUO): Depletion of 53Bp1; fibroblast accumulation [1, 2]: attenuated; renal fibrosis [1, 2]: attenuated |
| O=c1[nH]c(=S)[nH]c(N=Cc2ccccc2)c1N=Cc1ccccc1 [SCR7] |  | fibroblast accumulation [1, 3]: significantly reduced; fibrosis [1, 3]: significantly reduced |
| Cc1c2ccncc2cc2c1[nH]c1ccccc12 [NSC 87206, 5-Methyl-6H-pyrido(4,3-b)carbazole] | Strong inhibitors |  |
| [Mo12O36(PO4)] disodium salt [NSC No. 622116] | Strong inhibitors |  |
| N#CC(=C1C=CC(=NO)C=C1)c1ccc(Cl)cc1 [NSC No. 405158, alpha-(p-chlorophenyl)-4-oxo-2,5-cyclohexadiene-δ1,α-acetonitrile oxime] | Strong inducers |  |

Second part, led by results:

| EYA1A phosphatase activity (EYA1A) | Compound | other results |
| --- | --- | --- |
| Strong inhibitors | Hexapotassium hexatriaconta-p-oxooctadecaoxobis [μ9-[phosphato(3-)-κO:κO:κO:κO′:κO′:κO″:κO″:κO′″:κO′″]]octadeca-molybdate(6-) [NSC No. 622124] |  |
| Strong inducers | O=c1ccc(-c2ccccc2)nn1-c1nc2ccccc2s1 [NSC No. 629659, 2-(2-benzothiazolyl)-6-phenyl-3(2H)-pyridazinone] |  |
| Strong inducers | O=C1C(c2cnc3ccccc3n2)=C(O)c2ccccc21 [NSC No. 634224, 3-hydroxy-2-(2-quinoxalinyl)-1-indenone] |  |
| Strong inhibitors | COc1cc2cc3c4cc(OC)c(OC)cc4cc[n+]3c(C)c2cc1OC.O=C([O-])CS(=O)(=O)O [NSC No. 154890, Dibenzo(a,g)quinolizinium, 2,3,10,11-tetramethoxy-8-methyl-sulfoacetate] |  |
| Strong inhibitors | O=C1C=C(Nc2ccccc2C(=O)CC(=O)C(=O)Nc2ccc(Cl)cc2)c2ccccc2C1=O [NSC No. 641253] |  |
| Strong inducers | CN(C)c1cccc(/C=C(\C#N)c2ccccc2)c1 [NSC No. 667251, (Z)-3-[3-(dimethylamino)phenyl]-2-phenylprop-2-enenitrile] |  |
